Source: patent US20220241306A1, “CHITIN ANALOGS FOR THE TREATMENT OF KIDNEY DISEASES” (AyuVis Research, Inc., priority 2021, published 2022)

Assays:
TNF-α = experiment: RT-PCR of kidney tissue, glycerol-treated mice: TNF-α; assay type: in vivo, mouse; conditions: whole kidney tissue, RT-PCR vs GAPDH
Source text: (§1) Mouse model for acute kidney injury. Eight to ten weeks old male C57 BL/6J mice (n=5-7 per group, male and female) were utilized to induce acute kidney injury. Animals were randomized before treatment. Littermates or co-housed animals were chosen for this study. The mice were kept without water but unlimited access to chow for −24 hrs. In first study, nine ml per kg body weight of 1:1 diluted glycerol was intramuscularly injected followed by intraperitoneal administration of either compound 2 (5 mg/kg) or compound 8 (2.5 mg/kg body weight) at 1, 6 and 24 hrs post glycerol dosing. In a second study, AVR-48 was injected either at 5.0 mg/kg/dose or 10 mg/kg/dose IP after 3 h of glycerol administration and was dosed 2/day for 3 days (total 7 doses) and survival was monitored till 8 days.
(§2) The mice were sacrificed, and bloods were collected by heart puncture. Serum samples were stored at −80° C. for future use. Kidney, spleens, lungs and liver were immediately fixed in 10% buffered formalin for histopathological analysis. Part of the kidney were snap frozen for RNA isolation.
(§3) RNA isolation and RT-PCR. RNA was isolated from snap-frozen kidney samples by using RNA plus micro kit (Qiagen) according to manufacturer's instruction. c-DNA were prepared by Quanta-Bio-C-DNA kit. […] The expression of various genes was analyzed in comparison to GAPDH. […]

cyclooxygenase-2 (Cox-2) = experiment: RT-PCR of whole kidney tissue, glycerol-treated mice: Cox-2 mRNA; assay type: in vivo, mouse; conditions: vs glycerol injection
Source text: as §1, §2
RNA isolation and RT-PCR. RNA was isolated from snap-frozen kidney samples by using RNA plus micro kit (Qiagen) according to manufacturer's instruction. c-DNA were prepared by Quanta-Bio-C-DNA kit. […] The expression of various genes was analyzed in comparison to GAPDH.

IL-10 = experiment: RT-PCR of kidney tissue, glycerol-treated mice: IL-10; assay type: in vivo, mouse
Source text: as §1, §2
RNA isolation and RT-PCR. […] The expression of various genes was analyzed in comparison to GAPDH.
FIGS. 6A and 6B are graphs that show the level of the anti-inflammatory cytokine IL-10 in the whole kidney tissue (FIG. 6A) and in kidney cortex tissue (FIG. 6B) with or without AVR-48 treatment as determined by RT-PCR experiment. […]

hemeoxygenase-1 (OH-1) = experiment: RT-PCR of kidney cortical tissue, glycerol-treated mice: hemeoxygenase-1; assay type: in vivo, mouse; conditions: kidney cortical tissue (FIG. 7A); vs glycerol
Source text: as §1, §2, §3

[1] = test system: glycerol induced rhabdomyolysis model; experiment: Survival in glycerol induced rhabdomyolysis model; assay type: in vivo, mouse; conditions: 10 mg/kg/dose IP from 3 h after glycerol, 2/day for 3 days; monitored till 8 days; vs glycerol+saline, p<0.05
Source text: as §1
FIG. 9 is a graph showing survival curve of the mouse in a glycerol induced rhabdomyolysis model when dosed after 3 h of glycerol administration.

[2] = test system: mechanical ventilator induced kidney injury; experiment: Preterm lamb model of mechanical ventilator induced kidney injury: BUN; assay type: in vivo; conditions: day 10, after 7 days of treatment on invasive mechanical ventilator
Procedure: (§4) A unique PT lamb model, developed by Dr. Albertine (University of Utah), was used to emulate the clinical setting for PT human infants with respiratory failure related to premature birth before the lungs are mature enough to support extra-uterine life.
(§5) A dose range-finding study was conducted with the goal of treating 2-3 PT lambs with either a vehicle control or AVR-48 (compound 8, 3mg/kg/dose) by twice daily intravenous infusions during 6 to 7 days of mechanical ventilation, followed by transition to noninvasive respiratory support (NIS) for 3 days, for a total of 10 days of management of these PT lambs. AVR-48 was not given during the period of noninvasive respiratory support to assess short-term persistence of effect of AVR-48. Detailed methods have been published previously by Reyburn et al. and Null et al (Reyburn, Li et al. 2008, Null, Alvord et al. 2014), relevant portions incorporated herein by reference. All protocols have been adhered to APS/NIH guidelines for animal research and have been approved by the Institution Animal Care and Use Committees (IACUC) at the University of Utah.
Fetal lamb is term lamb control. N=2-3, **p<0.01, *** student t test (2-tailed), Dunnett's multiple comparison test.

IL-1β = experiment: RT-PCR of kidney tissue, glycerol-treated mice: IL-1β; assay type: in vivo, mouse; conditions: whole kidney tissue, RT-PCR vs GAPDH
Source text: as §1, §2, §3

NGAL = experiment: RT-PCR of kidney cortical tissue, glycerol-treated mice: NGAL; assay type: in vivo, mouse; conditions: kidney cortical tissue (FIG. 7B); vs glycerol
Source text: as §1, §2, §3

glycerol-induced AKI = experiment: Mouse model for acute kidney injury (glycerol-induced): serum creatinine, BUN, proteinuria; assay type: in vivo; conditions: for blood urea nitrogen (BUN) level in serum / serum creatinine level: glycerol IM, compound 2 (5 mg/kg) or compound 8 (2.5 mg/kg) IP at 1, 6 and 24 hrs post glycerol, vs glycerol controls
Source text: Mouse model for acute kidney injury. Eight to ten weeks old male C57 BL/6J mice (n=5-7 per group, male and female) were utilized to induce acute kidney injury. Animals were randomized before treatment. Littermates or co-housed animals were chosen for this study. The mice were kept without water but unlimited access to chow for −24 hrs. In first study, nine ml per kg body weight of 1:1 diluted glycerol was intramuscularly injected followed by intraperitoneal administration of either compound 2 (5 mg/kg) or compound 8 (2.5 mg/kg body weight) at 1, 6 and 24 hrs post glycerol dosing. In a second study, AVR-48 was injected either at 5.0 mg/kg/dose or 10 mg/kg/dose IP after 3 h of glycerol administration and was dosed 2/day for 3 days (total 7 doses) and survival was monitored till 8 days. Proteinuria was measured in urine at 24 hrs before sacrifice of the animals by an albustix proteinuria strip. The mice were sacrificed, and bloods were collected by heart puncture. Serum samples were stored at −80° C. for future use. Kidney, spleens, lungs and liver were immediately fixed in 10% buffered formalin for histopathological analysis. Part of the kidney were snap frozen for RNA isolation. To evaluate the effect of AVR-48 and AVR-123 on acute kidney injury, the inventors measured the vital parameters of kidney injury, i.e., levels of creatinine and blood urea nitrogen (BUN) in the serum of animals treated with AVR-48 and AVR-123 along with glycerol treated positive controls. PBS treated animals were considered as sham. […] N=4-7 mice. *p=0.02, **p=0.00′7, and ***p=0.0004, One-way ANOVA, Dunnett's multiple comparison test. […] N=4-7 mice, each sample run in duplicates. ****p<0.0001, One-way ANOVA, Dunnett's multiple comparison test.

[3] = test system: glycerol induced damage of kidney tissues; experiment: H/E staining of mouse whole kidney tissue after glycerol; assay type: in vivo; conditions: N=5
Source text: as §1, §2

[4] = test system: mechanical ventilator induced kidney injury; experiment: Preterm lamb model of mechanical ventilator induced kidney injury: renal cortical histology; assay type: in vivo; conditions: 3.0 mg/Kg twice daily IV during mechanical ventilation, vs vehicle (saline)
Procedure: as §4, §5
FIGS. 11A and 11B compare renal cortical histology from the preterm lamb treated with 3.0 mg/Kg of AVR-48 (FIG. 11A) versus the vehicle-treated lamb (saline; FIG. 11B). Renal cortical histology is normal in the 3.0 mg/Kg AVR-48-treated lamb. […]

Row | Structure (SMILES) | level of TNF-α in kidney tissue (TNF-α) | Cox-2 mRNA level in whole kidney tissue (cyclooxygenase-2 (Cox-2)) | level of IL-10 in kidney cortex tissue (IL-10; kidney cortex tissue, RT-PCR (FIG. 6B), vs glycerol treated group) | level of IL-10 in whole kidney tissue (IL-10; whole kidney tissue, RT-PCR (FIG. 6A)) | level of hemeoxygenase-1 (OH-1) in kidney cortical tissue (hemeoxygenase-1 (OH-1)) | survival [1] | BUN at day 10 [2] | level of IL-1β in kidney tissue (IL-1β) | level of NGAL in kidney cortical tissue (NGAL) | blood urea nitrogen (BUN) level in serum (glycerol-induced AKI) | serum creatinine level (glycerol-induced AKI) | total proteinuria level (glycerol-induced AKI; urine at 24 hrs, albustix proteinuria strip, vs glycerol treated mice) | H/E staining of whole kidney tissue [3] | renal cortical histology [4]
1 | CC(=O)N[C@@H]1C(Oc2ccc([N+](=O)[O-])cc2)OC(CO)C(O)C1O (stereo partly shown) [AVR-48] | significantly decreased the level | decreased significantly | decreased the level and brought it back close to normal | significantly high | decreased the level significantly | significant difference in survival | decreased BUN | significantly decreased the level | decreased | significantly reduced | significantly reduced | decreased proteinuria levels | significant protection of kidney tissues | normal
2 | CC(=O)NC1[C@H](Oc2ccc(C(=O)N[C@@H]3OC(COC(C)=O)[C@@H](OC(C)=O)[C@H](OC(C)=O)C3NC(C)=O)cc2)OC(CO)[C@@H](O)[C@@H]1O (stereo partly shown) [AVR-123] |  |  |  |  |  |  |  |  |  | significantly reduced | significantly reduced |  |  | 
